Experimental data from US8703749B2, “Compositions and methods for treating Friedreich's Ataxia” (priority 2009, dated 2014).

Experiments:
[1] = test system: FRDA cells; assay: Tolerability by FRDA cells; assay type: cell-based, human; details: among the different ubiquitin-competing molecules
[2] = test system: aconitase; assay: Aconitase assay in FRDA lymphoblasts; assay type: cell-based, human; details: FRDA lymphoblasts GM16798; 50 μM; 6 days
Protocol: (§1) FRDA lymphoblasts and fibroblasts were washed twice with ice-cold Dulbecco's Phosphate Buffered Saline (DPBS) and lysed in CelLytic M buffer (Sigma-Aldrich) supplemented with Complete protease inhibitor cocktail, EDTA-free (Roche). Aconitase activity was measured spectrophotometrically at 340 nm by a coupled reaction of aconitase and isocitrate dehydrogenase. The assay reactions contained […] of cell extract in 50 mM Hepes pH 7.4, 1 mM sodium citrate, 0.6 mM MnCl2, 0.2 mM NADP^+ and 2 U/ml isocitrate dehydrogenase (Sigma-Aldrich). Citrate synthase activity was assessed using […] of cell extract with the Citrate Synthase Assay Kit (Sigma-Aldrich CS0720). The aconitase activities were normalized with respect to citrate synthase ratios; one milliunit of enzyme was defined as the amount of protein that converted 1 nmol of NADP^+ in 1 min at 25° C. The intracellular ATP content was measured in black microtiter plates using […] of cell extract with the ATP Bioluminescence Assay Kit CLS II (Roche) according to the manufacturer's protocol.
(§2) FRDA lymphoblasts GM16798 were left untreated or treated for 6 days with 50 μM Formula IV. Their genetically-related healthy control GM16241 lymphoblasts were left untreated. […] Aconitase activity and ATP levels were measured as described previously.

[3] = biological target: T1, frataxin (Homo sapiens, UniProt Q16595); assay: Frataxin accumulation in FRDA fibroblasts (FACS, SDS-PAGE/western blot); assay type: cell-based; parameters: HEK-293 Flp-In cells stably transfected with frataxin^1-210; expressed in transfected cells; details: FRDA fibroblasts GM03816; 100 μM; 3 days
T1 sequence (Q16595 42-210): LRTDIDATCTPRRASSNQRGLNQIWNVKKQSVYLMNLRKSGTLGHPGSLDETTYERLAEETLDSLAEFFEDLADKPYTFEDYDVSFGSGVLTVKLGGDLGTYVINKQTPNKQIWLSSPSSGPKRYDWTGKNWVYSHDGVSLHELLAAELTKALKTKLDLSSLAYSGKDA
Protocol: Human embryonic kidney HEK-293 cells and Hela cells were maintained in DMEM supplemented with 10% FBS. HEK-293 were transfected with the calcium/phosphate precipitation method, using 20 μg total DNA (10 μg pIRES-frataxin and 10 μg HA-Ub, or corresponding empty vectors) on 10 cm dishes. Hela cells were transfected using Lipofectamine 2000 reagents (Invitrogen), according to manufacturer's instructions. Where indicated, the day after transfection, cells were treated for 16 h with 10 μM proteasome inhibitors, MG132 or Lactacystin, or 50 ng/ml DUB inhibitor Ubiquitin-Aldehyde. […]
(§3) Cell extracts were prepared in modified RIPA buffer (10 mM sodium phosphate pH7.2, 150 mM NaCl, 1% Na deoxycholate, 0.1% SDS, 1% Np40, 2 mM EDTA) or IP buffer (50 mM Tris-HCl, pH 7.5, 150 mM NaCl, 1% Nonidet P-40, 5 mM EDTA, 5 mM EGTA) supplemented with Complete protease inhibitor cocktail and 2 mM N-Ethylmaleimide (NEM). For immunoblotting, 100 μg of protein extract were separated on 12% SDS-PAGE, blotted onto nitrocellulose membrane and detected with specific antibodies. […] Immunocomplexes were then resolved and analysed by SDS-PAGE. […]
Cells were collected after the indicated treatments and fixed for 20 minutes in 4% paraformaldehyde at room temperature. […] After washing 3 times with PBS cells were analyzed by flow cytometry (Becton Dickinson). […]

[4] = test system: FRDA fibroblasts GM03816; assay: Intracellular ATP content in FRDA fibroblasts; assay type: cell-based, human; details: 100 μM, 3 days
Protocol: as §1, with “The aconitase activities were normalized with respect to citrate synthase ratios; one milliunit of enzyme was defined as the amount of protein that converted 1 nmol of NADP^+ in 1 min at 25° C.” left out
FRDA fibroblasts GM03816 were treated for 3 days with 100 μM Formula IV. Cells were then fixed, stained with anti-frataxin antibody or anti-Bcl2, as a control, and analyzed by flow cytometry. […] Total cell extracts were resolved on SDS-PAGE and analyzed with anti-frataxin antibody, or anti-tubulin, as a loading control. […] ATP levels were quantitated as described previously.

[5] = test system: FRDA lymphoblasts GM16798; assay: Intracellular ATP content in FRDA lymphoblasts; assay type: cell-based, human; details: 50 μM, 6 days
Protocol: as §1, §2

[6] = biological target: T1, frataxin; assay: Frataxin accumulation in HEK-293 Flp-In cells stably expressing frataxin 1-210 (WB, FACS); assay type: cell-based; parameters: HEK-293 Flp-In cells stably transfected with frataxin^1-210; expressed in transfected cells; details: HEK-293 Flp-In frataxin 1-210; 100 μM; 18 hours
Protocol: (§4) Human embryonic kidney HEK-293 cells and Hela cells were maintained in DMEM supplemented with 10% FBS. HEK-293 were transfected with the calcium/phosphate precipitation method, using 20 μg total DNA (10 μg pIRES-frataxin and 10 μg HA-Ub, or corresponding empty vectors) on 10 cm dishes. Hela cells were transfected using Lipofectamine 2000 reagents (Invitrogen), according to manufacturer's instructions. Where indicated, the day after transfection, cells were treated for 16 h with 10 μM proteasome inhibitors, MG132 or Lactacystin, or 50 ng/ml DUB inhibitor Ubiquitin-Aldehyde. Flp-In-HEK-293 cells (Invitrogen) are HEK-293 variants allowing the stable and isogenic integration and expression of a transfected gene. Flp-In-HEK-293 cells were maintained in DMEM supplemented with 10% FBS and transfected with the calcium/phosphate precipitation method. Briefly, cells were plated on 10 cm dishes and transfected with 10 μg total DNA. The HEK-293 clone stably expressing frataxin^1-210 was previously described (4). The HEK-293 clone stably expressing frataxin^K147R was obtained from cultures in selection medium containing 100 μg/ml hygromycin B (Invitrogen). FRDA lymphoblasts GM15850, GM16798 and GM16241, as well control lymphoblasts GM15851, GM16241 and GM16215, were maintained in RPMI supplemented with 15% FBS. Treatments with specific ubiquitin-competing molecules were performed in 20% FBS containing medium. FRDA fibroblasts GM03816 were maintained in DMEM supplemented with 15% FBS.
Cell extracts were prepared in modified RIPA buffer (10 mM sodium phosphate pH7.2, 150 mM NaCl, 1% Na deoxycholate, 0.1% SDS, 1% Np40, 2 mM EDTA) or IP buffer (50 mM Tris-HCl, pH 7.5, 150 mM NaCl, 1% Nonidet P-40, 5 mM EDTA, 5 mM EGTA) supplemented with Complete protease inhibitor cocktail and 2 mM N-Ethylmaleimide (NEM). For immunoblotting, 100 μg of protein extract were separated on 12% SDS-PAGE, blotted onto nitrocellulose membrane and detected with specific antibodies. For in vivo detection of ubiquitin-conjugates […] and 50 ng/ml Ubiquitin-Aldehyde were added to the lysis buffer. For immunoprecipitation, 5 mg of total protein extract prepared as above were incubated for 1-2 h at 4° C. with specific antibodies, previously conjugated to Protein G-sepharose (GE Healthcare). Immunocomplexes were then resolved and analysed by SDS-PAGE. […] Densitometric analysis was performed using ImageJ software.
Cells were collected after the indicated treatments and fixed for 20 minutes in 4% paraformaldehyde at room temperature. Cells were then permeabilized and blocked in a blocking solution (3% FBS in PBS) containing 0.2% Triton, for 1 hour at room temperature. Cells were then incubated overnight at 4° C. with anti-frataxin monoclonal antibody (MAB-10485, Immunological Science) or anti-Bcl2 monoclonal antibody (sc-509, Santa Cruz) diluted 1:200 in blocking solution. Cells were then washed 3 times in PBS and incubated for 1 hour at room temperature with FITC-conjugated goat anti-mouse IgG/IgM (BD Bioscience Pharmingen) diluted 1:200 in blocking solution. After washing 3 times with PBS cells were analyzed by flow cytometry (Becton Dickinson).
HEK-293 Flp-In cells stably transfected with frataxin^1-210 were treated for the indicated times with 10 μM MG132. Total cell extracts were blotted as in A. One representative experiment out of four performed with similar results is shown in FIG. 18.
Formula III induces frataxin precursor accumulation. HEK-293 Flp-In cells stably expressing frataxin^1-210 were treated for the indicated days with 20 μM of Formula III or 10 μM MG132. Total cell extracts were resolved on SDS-PAGE and analyzed with anti-frataxin antibody, or anti-tubulin, as a loading control.
Formula III induces mature frataxin accumulation. HEK-293 Flp-In cells stably expressing frataxin^1-210 were treated and analyzed as in B. One representative experiment out of three performed with similar results is shown FIG. 5C. […]

[7] = biological target: T1, frataxin; assay: Frataxin accumulation in FRDA lymphoblasts (FACS, SDS-PAGE/western blot); assay type: cell-based; details: 50 μM, 6 days
Protocol: as §4, with “The HEK-293 clone stably expressing frataxin^K147R was obtained from cultures in selection medium containing 100 μg/ml hygromycin B (Invitrogen). FRDA lymphoblasts GM15850, GM16798 and GM16241, as well control lymphoblasts GM15851, GM16241 and GM16215, were maintained in RPMI supplemented with 15% FBS. Treatments with specific ubiquitin-competing molecules were performed in 20% FBS containing medium. FRDA fibroblasts GM03816 were maintained in DMEM supplemented with 15% FBS.” left out
as §3
Cells were collected after the indicated treatments and fixed for 20 minutes in 4% paraformaldehyde at room temperature. […] After washing 3 times with PBS cells were analyzed by flow cytometry (Becton Dickinson).
FRDA lymphoblasts GM15850 were cultured for 6 days in the presence of 50 μM Formula IV or Formula VI. Cells were then fixed, stained with anti-frataxin antibody or anti-Bcl2, as a control, and analyzed by flow cytometry. […]

## O=[N+]([O-])c1cccc(/C=N/NS(=O)(=O)c2ccc(Cl)cc2)c1O [Formula IV]
[1]
  tolerability by FRDA cells: best tolerated
[2]
  aconitase activity: significantly boost
[3]
  frataxin accumulation by FACS and SDS-PAGE/western blot: frataxin accumulation can be detected as early as 3 days of treatment
[4]
  ATP levels: Rescue of ATP levels can also be achieved
[5]
  ATP levels: significantly boost
[6]
  frataxin accumulation by WB and FACS analysis: effective in inducing frataxin accumulation
[7]; FRDA lymphoblasts GM15850, GM16798 and GM16214
  accumulation of mature frataxin by SDS-PAGE and western blot: accumulation of mature frataxin can be detected
[7]; FRDA lymphoblasts GM15850
  frataxin accumulation by FACS analysis: discrete frataxin accumulation detectable in all cells
